Values quoted from earlier work in patent EP4223883A1, “PROCESS FOR PRODUCING TRYPTAMINES” (Infinit Biosystems, priority 2022, dated 2023).

Legend:
[1] = tested on: T1, PSI H, Tryptamine 4-monooxygenase, Psilocybe cubensis, Uniprot: A0A286LF02; details: substrate taken from the text, not given; Km of the cofactor (NADPH) considered equal
T1 sequence (A0A286LF02 20-507): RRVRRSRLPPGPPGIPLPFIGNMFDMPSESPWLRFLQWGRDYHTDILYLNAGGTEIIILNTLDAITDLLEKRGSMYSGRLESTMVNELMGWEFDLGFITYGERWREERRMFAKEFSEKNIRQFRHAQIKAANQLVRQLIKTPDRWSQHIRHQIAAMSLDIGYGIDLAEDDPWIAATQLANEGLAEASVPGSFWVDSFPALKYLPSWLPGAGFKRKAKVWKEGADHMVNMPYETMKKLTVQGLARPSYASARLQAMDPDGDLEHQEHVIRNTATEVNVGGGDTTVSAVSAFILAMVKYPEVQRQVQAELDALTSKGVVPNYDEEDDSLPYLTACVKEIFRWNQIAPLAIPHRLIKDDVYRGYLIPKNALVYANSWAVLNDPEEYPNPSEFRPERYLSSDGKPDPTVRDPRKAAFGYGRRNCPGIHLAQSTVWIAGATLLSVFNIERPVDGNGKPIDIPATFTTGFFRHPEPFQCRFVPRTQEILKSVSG

[2] = tested on: PSI M, N-methyltransferase, Psilocybe cubensis, Uniprot: P0DPA9
[3] = target: T2, PSI K, 4-hydroxytryptamine kinase, Psilocybe cubensis, Uniprot: P0DPA8 (Psilocybe cubensis, UniProt P0DPA8); details: substrate taken from the text, not given; Km of the cofactor (ATP) considered equal
T2 sequence (P0DPA8 1-362): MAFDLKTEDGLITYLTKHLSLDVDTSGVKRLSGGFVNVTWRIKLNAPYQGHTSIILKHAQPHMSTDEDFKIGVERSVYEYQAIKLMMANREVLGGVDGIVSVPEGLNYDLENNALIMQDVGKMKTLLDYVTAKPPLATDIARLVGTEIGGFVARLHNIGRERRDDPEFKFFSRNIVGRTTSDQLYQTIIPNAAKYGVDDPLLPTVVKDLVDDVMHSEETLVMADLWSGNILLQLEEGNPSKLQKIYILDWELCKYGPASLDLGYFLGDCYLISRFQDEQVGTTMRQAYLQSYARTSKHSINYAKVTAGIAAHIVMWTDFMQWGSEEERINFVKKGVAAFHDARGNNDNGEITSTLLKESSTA

## NCCc1c[nH]c2ccccc12 [tryptamine, Tryptamine]
[1]
  Km: 220 µM

## NCCc1c[nH]c2cccc(OP(=O)(O)O)c12 [norbaeocystin]
[2]
  Km: 165 µM

## NCCc1c[nH]c2cccc(O)c12 [4-hydroxytryptamine]
[3]
  Km: 80 µM
